{"source": "patent US6500824B1", "about": "“Kappa (OP2) opioid receptor antagonists” (Regents of the University of Minnesota, priority 1998, dated 2002)", "key": {"[1]": {"target": "T1, kappa (OP2) opioid receptor (Cavia porcellus, UniProt P41144)", "T1 construct": "a strip of longitudinal muscle with the myenteric plexus attached was prepared; from tissue; host or cells: guinea pig ileal longitudinal muscle with myenteric plexus", "assay": "Guinea pig ileal longitudinal muscle (GPI) smooth muscle assay, antagonism of ethylketazocine (EKC)", "format": "cell-based", "description": "(§1) 1. Guinea Pig Ileal Longitudinal Muscle (GPI). Ilea from guinea pigs were taken approximately 10 cm from the ileocecal junction, and a strip of longitudinal muscle with the myenteric plexus attached was prepared by the method of H. B. Rang et al., Brit. J Pharmacol., 1964, 22, 356. A 1 cm portion of this strip was then mounted between two platinum electrodes placed in a 10 ml organ bath and connected to an isometric transducer, contractions were recorded on a polygraph. Contractions of the ileal strip were initiated by supramaximal rectangular pulses in all preparations (80 V of 0.5 ms duration at a frequency of 0.1 Hz). Krebs bicarbonate solution containing […] chloropheniramine maleate was the bathing solution and was continuously bubbled with 95% O2 and 5% CO2. The organ bath was maintained at 36-37° C. The longitudinal strip was allowed to equilibrate with continuous stimulation for a minimum of 90 min. Cumulative concentration-response curves were determined after drugs were added to the bath in preselected amounts and washed out with buffer after noting their maximum effects.\n(§2) The standard agonists employed were [D-Ala^2, D-Leu^5]enkephalin (DADLE) (D), morphine (M) and ethylketazocine (EKC); these are selective for delta (D), mu (M) and kappa (EKC) opioid receptors, respectively. Concentration-response curves were obtained in the absence (control) and the presence of the antagonist and were determined as IC50 values. The IC50 ratio represents the IC50 in the presence of the antagonist divided by the control IC50 value in the same tissue. A concentration independent value of antagonist potency is calculated from the equation, Ke=[antagonist]/(IC50 ratio-1)."}, "[2]": {"tested_on": "μ(OP3) opioid receptor", "assay": "Guinea pig ileal longitudinal muscle (GPI) smooth muscle assay, antagonism of morphine", "format": "cell-based", "settings": "agonist morphine, antagonist concentration 100 nM", "description": "as §1, §2"}, "[3]": {"target": "T2, δ(OP1) opioid receptor (Mus musculus, UniProt P32300)", "T2 construct": "Both vasa deferentia were dissected out of mice and mounted singly; from tissue; host or cells: mouse vas deferens", "assay": "Mouse vas deferens (MVD) smooth muscle assay, antagonism of DADLE", "format": "cell-based", "description": "2. Mouse Vas Deferens (MvD). This assay was performed according to the description by G. Henderson et al., Brit. J. Pharmacol., 1972, 46,764. Both vasa deferentia were dissected out of mice and mounted singly through two platinum electrodes in a 10 ml organ bath. The bath contained Krebs bicarbonate solution that was continuously bubbled with 95% O2 and 5% CO2. The organ bath was maintained at 37° C. The tissue was attached to an isometric transducer and stimulated transmurally with rectangular pulses ([…], 1 ms duration, supramaximal voltage). Drugs were added cumulatively to the bath in preselected amounts and washed out after noting their maximum effects.\nas §2"}, "[4]": {"target": "T3, wt κ receptor (Rattus norvegicus, UniProt P34975)", "T3 construct": "expressed in transfected cells; host or cells: COS-7 (per the earlier reading)", "assay": "Competition binding with [3H]diprenorphine, whole cell binding, COS-7 cells, wt κ", "description": "(§3) The effects of mutational exchange of Glu297 in the κ receptor and Lys303 in the μ receptor on the binding affinity of representative compounds of the invention were examined using techniques known in the art."}, "[5]": {"target": "T4, κ[E297K] receptor (Rattus norvegicus, UniProt P34975, E297K)", "T4 construct": "expressed in transfected cells; host or cells: COS-7 (per the earlier reading)", "assay": "Competition binding with [3H]diprenorphine, whole cell binding, COS-7 cells, κ[E297K]", "description": "as §3"}, "[6]": {"target": "T5, wt μ receptor (Rattus norvegicus, UniProt P33535)", "T5 construct": "expressed in transfected cells; host or cells: COS-7 (per the earlier reading)", "assay": "Competition binding with [3H]diprenorphine, whole cell binding, COS-7 cells, wt μ", "description": "as §3"}, "[7]": {"tested_on": "wt μ receptor", "assay": "Competition binding with [3H]diprenorphine, whole cell binding, COS-7 cells, wt μ", "parameters": "species or system rat", "settings": "wt μ", "description": "as §3"}, "[8]": {"target": "T6, μ[K303E] receptor (Rattus norvegicus, UniProt P33535, K303E)", "T6 construct": "expressed in transfected cells; host or cells: COS-7 (per the earlier reading)", "assay": "Competition binding with [3H]diprenorphine, whole cell binding, COS-7 cells, μ[K303E]", "description": "as §3"}, "[9]": {"target": "T7, kappa opioid receptor (Cavia porcellus, UniProt P41144)", "T7 construct": "a strip of longitudinal muscle with the myenteric plexus attached was prepared; from tissue; host or cells: guinea pig ileal longitudinal muscle with myenteric plexus", "assay": "GPI preparation, kappa antagonist potency against U-50488H", "format": "cell-based, guinea pig", "settings": "GPI; agonist U-50488H; read-out: Ke", "description": "as §1"}, "[10]": {"settings": "GPI, agonist EKC, antagonist concentration 100 nM, read-out: Antagonist Potency Ke κ(OP2) EKC"}}, "note": "Read-outs that look alike come from different tables or passages of the source.", "data": [{"smiles": "N#C/N=C(\\N)Nc1ccc2[nH]c3c(c2c1)C[C@@]1(O)C2Cc4ccc(O)c5c4[C@@]1(CCN2CC1CC1)C3O5", "note": "(stereo partly drawn) [Compound 19, 5′-N′-Cyano-N-[17-(cyclopropylmethyl)-6,7-didehydro4.5α-epoxy-3,14-dihydroxyindolo[2′,3′:6,7]morphinian]-Guanidine]", "values": [{"measurement": "Kb", "setting": "[1]", "value": 3.13, "unit": "nM"}, {"measurement": "kappa opioid receptor selectivity (in words)", "setting": "[1]; in vitro, versus morphine and DADLE antagonism", "value": "demonstrated selectivity"}, {"measurement": "Antagonist Potency Ke μ(OP3) Morphine", "setting": "[2]", "value": 16.13, "unit": "nM"}, {"measurement": "Kb", "setting": "[3]", "value": 9.08, "unit": "nM"}, {"measurement": "Ki", "setting": "[4]", "value": "0.27 ± 0.01", "unit": "nM"}, {"measurement": "Fana = Ki(analog)/Ki(nor-BNI on the wt κ receptor)", "setting": "[4]; wt κ", "value": 2.25}, {"measurement": "Ki", "setting": "[5]", "value": "2.48 ± 0.82", "unit": "nM"}, {"measurement": "Fmut = mutational factor, Ki(mutant receptor)/Ki(wt κ receptor)", "setting": "[5]; κ[E297K]", "value": 9.2}, {"measurement": "Ki", "setting": "[6]", "value": "4.04 ± 1.23", "unit": "nM"}, {"measurement": "Fmut = mutational factor, Ki(mutant receptor)/Ki(wt κ receptor)", "setting": "[7]", "value": 15}, {"measurement": "Ki", "setting": "[8]", "value": "0.29 ± 0.05", "unit": "nM"}, {"measurement": "Fmut = mutational factor, Ki(mutant receptor)/Ki(wt κ receptor)", "setting": "[8]; μ[K303E]", "value": 1.1}]}, {"smiles": "CN(C)CCCN/C(=N\\C#N)Nc1ccc2[nH]c3c(c2c1)C[C@@]1(O)C2Cc4ccc(O)c5c4[C@@]1(CCN2CC1CC1)C3O5", "note": "(stereo partly drawn) [Compound 20, 5′-N-Cyano-N′-[3-(dimethylaminopropyl)]-N″-[17-(cyclopropylmethyl)6,7-didehydro4,5α-epoxy-3,14-dihydroxyindolo[2′,3′:6,7]morphinian]-guanidine]", "values": [{"measurement": "Kb", "setting": "[1]", "value": 0.24, "unit": "nM"}, {"measurement": "Antagonist Potency Ke μ(OP3) Morphine", "setting": "[2]", "value": 10.4, "unit": "nM"}]}, {"smiles": "N#C/N=C(\\NCCN1CCCC1)Nc1ccc2[nH]c3c(c2c1)C[C@@]1(O)C2Cc4ccc(O)c5c4[C@@]1(CCN2CC1CC1)C3O5", "note": "(stereo partly drawn) [Compound 21, 5′-N-Cyano-N′-[2-(1-aminoethylpyrrolidine)]-N″-[17-(cyclopropylmethyl)-6,7-didehydro4,5α-epoxy-3,14dihydroxyindolo[2′,3′:6,7]morphinian]-guanidine]", "values": [{"measurement": "Kb", "setting": "[1]", "value": 0.47, "unit": "nM"}, {"measurement": "Antagonist Potency Ke μ(OP3) Morphine", "setting": "[2]", "value": 5.71, "unit": "nM"}, {"measurement": "Kb", "setting": "[3]", "value": 127, "unit": "nM"}]}, {"smiles": "Oc1ccc2c3c1O[C@H]1c4[nH]c5ccccc5c4C[C@@]4(O)[C@@H](C2)N(CC2CC2)CC[C@]314", "note": "[Naltrindole (NTI) 1, naltrindole, reference compound]", "values": [{"measurement": "Kb", "setting": "[1]; [10]", "value": 45, "unit": "nM"}]}, {"smiles": "Oc1ccc2c3c1O[C@H]1c4[nH]c5c(c4C[C@@]4(O)[C@@H](C2)N(CC2CC2)CC[C@]314)C[C@@]1(O)[C@H]2Cc3ccc(O)c4c3[C@@]1(CCN2CC1CC1)[C@H]5O4", "note": "[nor-BNI, norbinaltorphimine, reference compound]", "values": [{"measurement": "Kb", "setting": "[1]; [10]", "value": 0.56, "unit": "nM"}, {"measurement": "Antagonist Potency Ke μ(OP3) Morphine", "setting": "[2]", "value": 13.7, "unit": "nM"}, {"measurement": "Kb", "setting": "[9]", "value": 0.2, "unit": "nM"}, {"measurement": "Ki", "setting": "[4]; [3H]diprenorphine competition, COS-7 whole cell binding, read-out: Ki ± SEM, wt κ", "value": "0.12 ± 0.04", "unit": "nM"}, {"measurement": "Ki", "setting": "[5]; [3H]diprenorphine competition, COS-7 whole cell binding, read-out: Ki ± SEM, κ[E297K]", "value": "12.5 ± 0.92", "unit": "nM"}]}]}
